Assay results: patent publication US20040052836A1, “Pharmaceutical compositions containing at least one stable liposphere having an improved shelf life” (priority 2002, published 2004)
Structures can show the parent of a compound that is named as a salt.

Columns and labels:
guinea pigs = assay: Guinea pig wheal anesthesia study (pin-prick); format: in vivo; conditions: subcutaneous 300 μL; 3% liposphere (p<0.043) or 0.5% bupivacaine HCl solution (p<0.008); 1-tailed test; FIG. 3
Experimental: Liposphere formulation containing bupivacaine (3%), tristearin (6%), and DMPC (0.75%) and the liposphere vehicle containing tristearin (6%) and DMPC (0.75%) were evaluated for their anesthesia activities in guinea pigs. The liposphere formulation and vehicle were prepared as described in Example 1. In addition, a solution of bupivacaine HCl (0.5%) and its vehicle (normal saline solution) were evaluated for comparison. In this example, adult guinea pigs were randomly assigned to one of two groups, with each group receiving two subcutaneous injections: one of vehicle and one of the test articles. Half of the animals in each group were given the vehicle on the left side and the test article on the right side. The other half were given the test article on the left side and the vehicle on the right. Injection volume was 300 μL. There were two injections given to each animal. Both groups consisted of eight animals, four of each group received an injection of the vehicle on the left side of the spine, and the remaining four animals received an injection of the vehicle on the right side. […] The “anesthetic action” (the ability of local anesthetics to block the skin reflex in guinea pigs) was determined using the “pin-prick” method. […] The ability of the test compound to block the twitch responses of the guinea pig to six probings with a carefully calibrated needle algesimeter was evaluated. […]

rats = assay: Rat thermal paw flick anesthesia study; format: in vivo; conditions: intraplantar injection 100 μL
Experimental: Liposphere containing bupivacaine (3%), tristearin (6%), and DMPC (0.75%) was tested for its local anesthetic activity in rats. Its activity was compared with that of bupivacaine HCL (3%) solution. The liposphere formulation was prepared as described in Example 1. Adult rats were given an intraplantar injection of 100 μL of either liposphere formulation or bupivacaine HCl solution. Animals were then individually placed into a Hargreaves “hotbox,” in which a beam of light, as a heat source, was focused on the plantar surface of the injected paw at various intervals after treatment. The latency for the rat to withdraw its paw was recorded, up to a maximum of 20 seconds. The earliest time point examined in these studies was 30 min. The latest time point was 120 min for animals treated with bupivacaine HCl solution (by which time latencies had returned to predrug baseline levels), and 1440 min for animals treated with liposphere formulation.

CCCCN1CCCCC1C(=O)Nc1c(C)cccc1C (stereo not drawn) [bupivacaine HCl solution, bupivacaine HCl]
duration of statistically significant anesthesia compared to vehicle (guinea pigs): up to 0.75 hours | duration of anesthesia post injection (rats; 3% bupivacaine liposphere or 3% bupivacaine HCl solution, paw withdrawal latency, FIG. 2): up to 60 min | time by which latencies had returned to predrug baseline levels (rats; bupivacaine HCl 3% solution): ≤ 120 min
